± gives the expanded uncertainty stated by the source.
Assay: xn = mol fraction of the nth substance listed
Details: 101 kPa, Liquid; for viscosity: Capillary tube (Ostwald / Ubbelohde) method; for speed of sound: Sing-around technique in a fixed-path interferometer

CCCCCCCCO [octan-1-ol] + CCCCCCCCCC
Details | mass density, 298.15 K [kg/m3] | mass density, 303.15 K [kg/m3] | mass density, 308.15 K [kg/m3] | speed of sound, 298.15 K [m/s] | speed of sound, 303.15 K [m/s] | speed of sound, 308.15 K [m/s] | viscosity, 298.15 K [mPa·s]
x1 = 0.0507 | 730.551 ± 1.6 | 726.796 ± 1.6 | 722.969 ± 1.6 | 1236.4 ± 2.9 | 1216.3 ± 2.9 | 1196.8 ± 2.9 | 0.896 ± 0.015
x1 = 0.1199 | 735.871 ± 1.5 | 732.137 ± 1.5 | 728.314 ± 1.5 | 1240.1 ± 2.8 | 1220.5 ± 2.8 | 1201.1 ± 2.8 | 0.978 ± 0.016
x1 = 0.1532 | 738.514 ± 1.4 | 734.755 ± 1.4 | 730.923 ± 1.4 | 1242.2 ± 2.7 | 1222.7 ± 2.7 | 1203.4 ± 2.7 | 1.026 ± 0.016
x1 = 0.2085 | 742.997 ± 1.3 | 739.255 ± 1.3 | 735.427 ± 1.3 | 1246.3 ± 2.6 | 1226.8 ± 2.6 | 1207.5 ± 2.6 | 1.121 ± 0.016
x1 = 0.2654 | 747.773 ± 1.3 | 744.007 ± 1.3 | 740.195 ± 1.3 | 1250.8 ± 2.4 | 1231.7 ± 2.4 | 1212.6 ± 2.4 | 1.233 ± 0.017
x1 = 0.3097 | 751.578 ± 1.2 | 747.791 ± 1.2 | 743.987 ± 1.2 | 1254.8 ± 2.3 | 1235.6 ± 2.3 | 1216.6 ± 2.3 | 1.33 ± 0.018
x1 = 0.4009 | 759.689 ± 1.1 | 755.863 ± 1.1 | 752.086 ± 1.1 | 1263.5 ± 2.1 | 1244.6 ± 2.1 | 1225.9 ± 2.1 | 1.579 ± 0.019
x1 = 0.5041 | 769.261 ± 0.97 | 765.532 ± 0.97 | 761.703 ± 0.97 | 1274.7 ± 1.9 | 1256 ± 1.9 | 1237.4 ± 1.9 | 1.958 ± 0.021
x1 = 0.6069 | 779.261 ± 0.85 | 775.493 ± 0.86 | 771.782 ± 0.86 | 1287.2 ± 1.6 | 1268.7 ± 1.6 | 1250.5 ± 1.6 | 2.49 ± 0.023
x1 = 0.7244 | 791.228 ± 0.74 | 787.587 ± 0.74 | 783.929 ± 0.75 | 1303.1 ± 1.4 | 1285 ± 1.4 | 1267.4 ± 1.4 | 3.381 ± 0.028
x1 = 0.7505 | 793.993 ± 0.72 | 790.368 ± 0.72 | 786.721 ± 0.73 | 1306.9 ± 1.3 | 1288.9 ± 1.3 | 1271.5 ± 1.3 | 3.642 ± 0.029
x1 = 0.804 | 799.684 ± 0.67 | 796.157 ± 0.68 | 792.558 ± 0.68 | 1315.2 ± 1.2 | 1297.5 ± 1.2 | 1279.9 ± 1.2 | 4.231 ± 0.031
x1 = 0.8958 | 809.826 ± 0.6 | 806.478 ± 0.61 | 802.907 ± 0.61 | 1330.1 ± 1 | 1312.7 ± 1 | 1295.6 ± 1 | 5.521 ± 0.036
x1 = 0.9544 | 816.493 ± 0.56 | 813.314 ± 0.57 | 809.765 ± 0.58 | 1339.9 ± 0.9 | 1322.9 ± 0.9 | 1305.9 ± 0.9 | 6.563 ± 0.039
x1 = 1 | 821.813 ± 0.54 | 818.796 ± 0.54 | 815.286 ± 0.55 | 1348 ± 0.8 | 1330.8 ± 0.8 | 1314.1 ± 0.8 | 7.508 ± 0.042
